What follows are compounds tested against human M4 receptor (Homo sapiens (Human), UniProt P08173) (assay: Radioligand (tritiated N-methylscopolamine) binding assay, M4). Details: Ki against the M4 receptor; membranes from CHO cells expressing human M4; tritiated N-methylscopolamine 1.5 nM; read-out: Ki.
Summary of the method: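 Ki from displacement of 1.5 nM [3H]N-methylscopolamine on membranes of CHO cells expressing each human receptor. Twelve compound concentrations (10 μM to […]), 90 min at 37° C in 50 mM HEPES, 100 mM NaCl, 5 mM MgCl2, 1 mM EDTA, pH 7.4. Bound ligand was captured by PEI-treated glass-fiber filtration and counted.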

Sequence of human M4 receptor (P08173 whole entry): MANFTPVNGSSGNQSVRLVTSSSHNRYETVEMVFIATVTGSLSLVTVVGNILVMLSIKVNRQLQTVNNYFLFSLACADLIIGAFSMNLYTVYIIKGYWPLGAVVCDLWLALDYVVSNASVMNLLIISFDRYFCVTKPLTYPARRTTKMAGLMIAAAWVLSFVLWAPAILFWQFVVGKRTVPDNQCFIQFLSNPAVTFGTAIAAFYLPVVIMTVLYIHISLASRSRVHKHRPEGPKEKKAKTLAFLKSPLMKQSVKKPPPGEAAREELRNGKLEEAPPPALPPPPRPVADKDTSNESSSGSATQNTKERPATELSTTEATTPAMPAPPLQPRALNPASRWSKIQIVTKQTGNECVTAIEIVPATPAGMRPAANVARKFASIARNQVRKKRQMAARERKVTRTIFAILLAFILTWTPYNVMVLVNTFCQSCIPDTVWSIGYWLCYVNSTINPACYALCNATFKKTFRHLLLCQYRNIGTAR

| Compound | Ki [nM] |
| --- | --- |
| C[C@@H]1CN(c2cnc(C(F)(F)F)nc2)C[C@H](C)N1C(=O)NCCC1CCN(Cc2ccc(N(C)C)cc2)CC1 [6-53, (2R,6S)-N-[2-(1-{[4-(dimethylamino)phenyl]methyl}piperidin-4-yl)ethyl]-2,6-dimethyl-4-[2-(trifluoromethyl)pyrimidin-5-yl]piperazine-1-carboxamide] | 10 to 100 |
| C[C@@H]1CN(c2cnc(C(F)(F)F)nc2)C[C@H](C)N1C(=O)NCCC1CCN(Cc2ccc(O)cc2)CC1 [6-54, (2R,6S)-N-(2-{1-[(4-hydroxyphenyl)methyl]piperidin-4-yl}ethyl)-2,6-dimethyl-4-[2-(trifluoromethyl)pyrimidin-5-yl]piperazine-1-carboxamide] | 10 to 100 |
| C[C@@H]1CN(c2cnc(C(F)(F)F)nc2)C[C@H](C)N1C(=O)NCCC1CCN(Cc2ccc(F)cc2)CC1 [6-55, (2R,6S)-N-(2-{1-[(4-fluorophenyl)methyl]piperidin-4-yl}ethyl)-2,6-dimethyl-4-[2-(trifluoromethyl)pyrimidin-5-yl]piperazine-1-carboxamide] | 10 to 100 |
| C[C@@H]1CN(c2cnc(C(F)(F)F)nc2)C[C@H](C)N1C(=O)NCCC1CCN(CCc2ccccc2)CC1 [6-56, (2R,6S)-2,6-dimethyl-N-{2-[1-(2-phenylethyl)piperidin-4-yl]ethyl}-4-[2-(trifluoromethyl)pyrimidin-5-yl]piperazine-1-carboxamide] | 10 to 100 |
| Cc1cc(CN2CCC(CCNC(=O)N3[C@H](C)CN(c4ncc(C#N)cn4)C[C@@H]3C)CC2)ccc1O [6-57, (2R,6S)-4-(5-cyanopyrimidin-2-yl)-N-(2-{1-[(4-hydroxy-3-methylphenyl)methyl]piperidin-4-yl}ethyl)-2,6-dimethylpiperazine-1-carboxamide] | 10 to 100 |
| C[C@@H]1CN(c2ncc(C#N)cn2)C[C@H](C)N1C(=O)NCCC1CCN(Cc2ncccn2)CC1 [6-58, (2R,6S)-4-(5-cyanopyrimidin-2-yl)-2,6-dimethyl-N-{2-[1-(pyrimidin-2-ylmethyl)piperidin-4-yl]ethyl}piperazine-1-carboxamide] | 100 to 1000 |
| COc1cccc(CN2CCC(CCNC(=O)N3[C@H](C)CN(c4ncc(C#N)cn4)C[C@@H]3C)CC2)c1 [6-59, (2R,6S)-4-(5-cyanopyrimidin-2-yl)-N-(2-{1-[(3-methoxyphenyl)-methyl]piperidin-4-yl}ethyl)-2,6-dimethylpiperazine-1-carboxamide] | 10 to 100 |
| C[C@@H]1CN(c2ncc(C#N)cn2)C[C@H](C)N1C(=O)NCCC1CCN(Cc2ccc3occc3c2)CC1 [6-60, (2R,6S)-N-{2-[1-(1-benzofuran-5-ylmethyl)piperidin-4-yl]ethyl}-4-(5-cyanopyrimidin-2-yl)-2,6-dimethylpiperazine-1-carboxamide] | 10 to 100 |
| C[C@@H]1CN(c2ncc(C#N)cn2)C[C@H](C)N1C(=O)NCCC1CCN(Cc2cccnc2)CC1 [6-61, (2R,6S)-4-(5-cyanopyrimidin-2-yl)-2,6-dimethyl-N-{2-[1-(pyridin-3-ylmethyl)piperidin-4-yl]ethyl}piperazine-1-carboxamide] | 100 to 1000 |
| C[C@@H]1CN(c2ncc(C#N)cn2)C[C@H](C)N1C(=O)NCCC1CCN(Cc2ccncc2)CC1 [6-62, (2R,6S)-4-(5-cyanopyrimidin-2-yl)-2,6-dimethyl-N-{2-[1-(pyridin-4-ylmethyl)piperidin-4-yl]ethyl}piperazine-1-carboxamide] | 100 to 1000 |
| C[C@@H]1CN(c2ncc(C#N)cn2)C[C@H](C)N1C(=O)NCCC1CCN(Cc2ccc(B(O)O)cc2)CC1 [6-63, (4-{[4-(2-{[(2R,6S)-4-(5-cyanopyrimidin-2-yl)-2,6-dimethyl-piperazine-1-carbonyl]amino}ethyl)piperidin-1-yl]methyl}phenyl)boronic acid] | 100 to 1000 |
| C[C@@H]1CN(c2ncc(C#N)cn2)C[C@H](C)N1C(=O)NCCC1CCN(Cc2cccnc2F)CC1 [6-64, (2R,6S)-4-(5-cyanopyrimidin-2-yl)-N-(2-{1-[(2-fluoropyridin-3-yl)methyl]piperidin-4-yl}ethyl)-2,6-dimethylpiperazine-1-carboxamide] | 100 to 1000 |
| COc1ccc(CN2CCC(CCNC(=O)N3[C@H](C)CN(c4ncc(C#N)cn4)C[C@@H]3C)CC2)cc1 [6-65, (2R,6S)-4-(5-cyanopyrimidin-2-yl)-N-(2-{1-[(4-methoxyphenyl)-methyl]piperidin-4-yl}ethyl)-2,6-dimethylpiperazine-1-carboxamide] | 10 to 100 |
| C[C@@H]1CN(c2ncc(C#N)cn2)C[C@H](C)N1C(=O)NCCC1CCN(Cc2ccc3c(c2)nnn3C)CC1 [6-66, (2R,6S)-4-(5-cyanopyrimidin-2-yl)-2,6-dimethyl-N-(2-{1-[(1-methyl-1H-1,2,3-benzotriazol-5-yl)methyl]piperidin-4-yl}ethyl)piperazine-1-carboxamide] | 100 to 1000 |
| COc1ccccc1CN1CCC(CCNC(=O)N2[C@H](C)CN(c3ncc(C#N)cn3)C[C@@H]2C)CC1 [6-67, (2R,6S)-4-(5-cyanopyrimidin-2-yl)-N-(2-{1-[(2-methoxyphenyl)-methyl]piperidin-4-yl}ethyl)-2,6-dimethylpiperazine-1-carboxamide] | 10 to 100 |

Results, then the compound that gave them:

| Ki [nM] | Compound |
| --- | --- |
| 10 to 100 | C[C@@H]1CN(c2ccc(F)c(C#N)c2)CCN1C(=O)NCCC1(CO)CCN(Cc2ccccc2)CC1 [7-2, (2R)-N-{2-[1-benzyl-4-(hydroxymethyl)piperidin-4-yl]ethyl}-4-(3-cyano-4-fluorophenyl)-2-methylpiperazine-1-carboxamide] |
| 10 to 100 | C[C@@H]1CN(c2ccc(OC(F)(F)F)c(C#N)c2)CCN1C(=O)NCCN1CCN(Cc2ccccc2)CC1 [7-3, (2R)-N-[2-(4-benzylpiperazin-1-yl)ethyl]-4-[3-cyano-4-(trifluoromethoxy)phenyl]-2-methylpiperazine-1-carboxamide] |
| 10 to 100 | C[C@@H]1CN(c2cc(F)cc(C#N)c2)CCN1C(=O)NC[C@H](O)C1CCN(Cc2ccccc2)CC1 [7-4, (2R)-N-[(2R)-2-(1-benzylpiperidin-4-yl)-2-hydroxyethyl]-4-(3-cyano-5-fluorophenyl)-2-methylpiperazine-1-carboxamide] |
| 100 to 1000 | C[C@@H]1CN(c2cc(F)c(F)c(F)c2)CCN1C(=O)NCC[C@H]1CCN(Cc2ccccc2)C1 [7-5, (2R)-N-{2-[(3S)-1-benzylpyrrolidin-3-yl]ethyl}-2-methyl-4-(3,4,5-trifluorophenyl)piperazine-1-carboxamide] |
| 100 to 1000 | C[C@@H]1CN(c2cc(F)c(F)c(F)c2)CCN1C(=O)NCCN1CCN(Cc2ccccc2)CC1 [7-6, (2R)-N-[2-(4-benzylpiperazin-1-yl)ethyl]-2-methyl-4-(3,4,5-trifluorophenyl)piperazine-1-carboxamide] |
| 100 to 1000 | C[C@@H]1CN(c2cc(F)c(F)c(F)c2)CCN1C(=O)NCCN1CCC(O)(Cc2ccccc2)CC1 [7-7, (2R)-N-[2-(4-benzyl-4-hydroxypiperidin-1-yl)ethyl]-2-methyl-4-(3,4,5-trifluorophenyl)piperazine-1-carboxamide] |
| 100 to 1000 | C[C@@H]1CN(c2cc(F)cc(C#N)c2)CCN1C(=O)NCC[C@H]1CCN(Cc2ccccc2)C1 [7-8, (2R)-N-{2-[(3S)-1-benzylpyrrolidin-3-yl]ethyl}-4-(3-cyano-5-fluorophenyl)-2-methylpiperazine-1-carboxamide] |
| 100 to 1000 | C[C@@H]1CN(c2cc(F)c(F)c(F)c2)CCN1C(=O)NCCN(C)[C@@H]1C[C@H](CO)N(Cc2ccccc2)C1 [7-13, (2R)-N-(2-{[(3R,5R)-1-benzyl-5-(hydroxymethyl)pyrrolidin-3-yl](methyl)amino}ethyl)-2-methyl-4-(3,4,5-trifluorophenyl)piperazine-1-carboxamide] |
| 10 to 100 | O=C(NCCC1CCN(Cc2ccccc2)CC1)N1CCN(c2cccc(OC(F)(F)F)c2)CC1 [8-2, N-[2-(1-benzylpiperidin-4-yl)ethyl]-4-[3-(trifluoromethoxy)phenyl]piperazine-1-carboxamide] |
| 10 to 100 | O=C(NCCC1CCN(Cc2ccccc2)CC1)N1CCC(c2cccc(C(F)(F)F)c2)CC1 [8-3, N-[2-(1-benzylpiperidin-4-yl)ethyl]-4-[3-(trifluoromethyl)phenyl]piperidine-1-carboxamide] |
| 10 to 100 | O=C(NCCC1CCN(Cc2ccccc2)CC1)N1CCC(c2ccc(Cl)cc2)CC1 [8-4, N-[2-(1-benzylpiperidin-4-yl)ethyl]-4-(4-chlorophenyl)piperidine-1-carboxamide] |
| 100 to 1000 | COc1cccc(C2CCN(C(=O)NCCC3CCN(Cc4ccccc4)CC3)CC2)c1 [8-5, N-[2-(1-benzylpiperidin-4-yl)ethyl]-4-(3-methoxyphenyl)piperidine-1-carboxamide] |
| 100 to 1000 | COc1ccccc1C1CCN(C(=O)NCCC2CCN(Cc3ccccc3)CC2)CC1 [8-6, N-[2-(1-benzylpiperidin-4-yl)ethyl]-4-(2-methoxyphenyl)piperidine-1-carboxamide] |
| 100 to 1000 | N#Cc1cc(Cl)ccc1N1CCN(C(=O)NCCC2CCN(Cc3ccccc3)CC2)CC1 [8-7, N-[2-(1-benzylpiperidin-4-yl)ethyl]-4-(4-chloro-2-cyanophenyl)piperazine-1-carboxamide] |
| 10 to 100 | O=C(NCCC1CCN(Cc2ccccc2)CC1)N1CCN(c2ccc(OC(F)(F)F)cc2)CC1 [8-8, N-[2-(1-benzylpiperidin-4-yl)ethyl]-4-[4-(trifluoromethoxy)phenyl]piperazine-1-carboxamide] |
| 10 to 100 | CN(C(=O)NCCC1CCN(Cc2ccccc2)CC1)C1CCN(c2ccc(Br)cn2)C1 (stereo not drawn) [8-9, 1-[2-(1-benzylpiperidin-4-yl)ethyl]-3-[1-(5-bromopyridin-2-yl)pyrrolidin-3-yl]-3-methylurea] |
| 10 to 100 | O=C(NCCC1CCN(Cc2ccccc2)CC1)N1CCC(c2csc3ccccc23)CC1 [8-10, 4-(1-benzothiophen-3-yl)-N-[2-(1-benzylpiperidin-4-yl)ethyl]piperidine-1-carboxamide] |
| 10 to 100 | O=C(NCCC1CCN(Cc2ccccc2)CC1)N1CCN(c2cccc(Cl)c2)CC1 [8-11, N-[2-(1-benzylpiperidin-4-yl)ethyl]-4-(3-chlorophenyl)piperazine-1-carboxamide] |

— patent publication US11033539B2, “Compounds of formulas (VII), (VIII), (IX), (XI), (XII), (XIII), and (XIV) as muscarinic receptor 4(M4) antagonists for treating neurological diseases” (Neurocrine Biosciences, Inc., priority 2015, dated 2021)
